Data from the NIST ThermoML archive (doi:10.1016/j.fluid.2013.05.016).
Numbers after ± are expanded uncertainties.

Conditions: Liquid; for mass density: 298.2 K, 101.33 kPa, Vibrating tube method; for vapor or sublimation pressure / Normal boiling temperature: Ebulliometric method (Recirculating still)

| mass density [kg/m3] | Normal boiling temperature [°C] | vapor or sublimation pressure (353.3 K) [kPa] | vapor or sublimation pressure (371.4 K) [kPa] | vapor or sublimation pressure (423.8 K) [kPa] | Compound | vapor or sublimation pressure (417.5 K) [kPa] | vapor or sublimation pressure (383.4 K) [kPa] |
| --- | --- | --- | --- | --- | --- | --- | --- |
| 873.66 ± 0.24 | 80.2 ± 1 | 101.3 ± 1.1 |  |  | c1ccccc1 [benzene] |  |  |
| 679.52 ± 0.24 | 98.2 ± 1 |  | 101.3 ± 1.1 |  | CCCCCCC [heptane] |  |  |
| 714.07 ± 0.24 | 150.7 ± 1 |  |  | 101.3 ± 1.1 | CCCCCCCCC [nonane] |  |  |

| Compound | mass density [kg/m3] | Normal boiling temperature [°C] | vapor or sublimation pressure (353.3 K) [kPa] | vapor or sublimation pressure (371.4 K) [kPa] | vapor or sublimation pressure (423.8 K) [kPa] | vapor or sublimation pressure (417.5 K) [kPa] | vapor or sublimation pressure (383.4 K) [kPa] |
| --- | --- | --- | --- | --- | --- | --- | --- |
| Cc1ccccc1C [1,2-dimethylbenzene] | 875.66 ± 0.24 | 144.4 ± 1 |  |  |  | 101.3 ± 1.1 |  |
| Cc1ccccc1 [toluene] | 862.18 ± 0.24 | 110.2 ± 1 |  |  |  |  | 101.3 ± 1.1 |
